Measured values: patent publication EP0626016B1, “[…] […]” (BRITISH TECHNOLOGY GROUP LIMITED, priority 1992, dated 1993)
Read-outs that look alike come from different tables or passages of the source.

Molecular target: T1, HRP Type VIA (Armoracia rusticana, UniProt P00433)
T1 sequence (P00433 31-338): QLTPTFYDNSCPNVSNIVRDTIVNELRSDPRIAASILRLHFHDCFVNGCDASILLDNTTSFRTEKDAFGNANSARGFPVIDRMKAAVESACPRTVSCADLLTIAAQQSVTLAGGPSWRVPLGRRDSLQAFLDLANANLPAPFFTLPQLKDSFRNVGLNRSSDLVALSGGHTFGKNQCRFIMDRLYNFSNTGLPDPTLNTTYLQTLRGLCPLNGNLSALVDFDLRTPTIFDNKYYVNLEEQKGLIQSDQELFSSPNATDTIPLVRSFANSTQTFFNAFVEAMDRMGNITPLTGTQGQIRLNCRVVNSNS
Conditions: for (d) Signal: Background: ratio (control = with no enhancer): control value in brackets not reported

Row | (a) Decrease in background (without HRP with test cpd.) (0.01 mg/ml, 10µl test compound) | (b) Increase in signal (with HRP, with test cpd.) (0.01 mg/ml, 10µl test compound) | (c) Increase in signal: background ratio (0.01 mg/ml, 10µl test compound) | (d) Signal: Background: ratio (control = with no enhancer) (0.01 mg/ml, 10µl test compound) | (a) Decrease in background (without HRP with test cpd.) (0.1 mg/ml, 10µl test compound) | (b) Increase in signal (with HRP, with test cpd.) (0.1 mg/ml, 10µl test compound) | (d) Signal: Background: ratio (control = with no enhancer) (0.1 mg/ml, 10µl test compound) | (a) Decrease in background (without HRP with test cpd.) (1 mg/ml, 10µl test compound) | (b) Increase in signal (with HRP, with test cpd.) (1 mg/ml, 10µl test compound) | (c) Increase in signal: background ratio (1 mg/ml, 10µl test compound) | (d) Signal: Background: ratio (control = with no enhancer) (1 mg/ml, 10µl test compound) | Structure (SMILES) | (c) Increase in signal: background ratio (0.1 mg/ml, 10µl test compound) | (a) Decrease in background (without HRP with test cpd.) | (b) Increase in signal (with HRP, with test cpd.) | (c) Increase in signal: background ratio
1 | Y | N | N (N = no) | 2.2 (2.0) | Y | N | 3.6 (2.7) | Y | N | N (N = no) |  | OB(O)c1cccc(Cl)c1Cl [Compound 1022, 2,3-dichlorophenylboronic acid] | Y (Column (c) shows whether there was an increase in the signal:background ratio by over 25% of the control value (Y = yes) |  |  | 
2 | Y | N | N (N = no) |  | Y | N | 3.1 (2.7) | Y | N | N (N = no) |  | OB(O)c1cc(Cl)ccc1Cl [Compound 1023, 2,5-dichlorophenylboronic acid] | N (N = no) |  |  | 
3 | Y | N | N (N = no) | 2.1 (2.0) | Y | N |  | Y | N | N (N = no) |  | OB(O)c1cc(Cl)cc(Cl)c1 [Compound 1025, 3,5-dichlorophenylboronic acid] | N (N = no) |  |  | 
4 | Y | N | N (N = no) | 2.1 (2.0) | Y | N | 3.2 (2.9) | Y | N | N (N = no) |  | OB(O)c1ccccc1Cl [Compound 1027, 2-chlorophenylboronic acid] | N (N = no) |  |  | 
5 | Y | N | N (N = no) | 2.1 (2.0) | Y | N | 3.3 (2.9) | Y | N | N (N = no) |  | O=C(CCl)Nc1cccc(B(O)O)c1 [Compound 1031, 3-chloroacetylaminophenylboronic acid] | N (N = no) |  |  | 
6 | Y | N | N (N = no) |  | Y | N | 3.4 (2.9) | Y | N | N (N = no) |  | CCC(C)CNc1cccc(B(O)O)c1 (stereo not shown) [Compound 1032, 3-(2'-methylbutylamino)phenylboronic acid] | N (N = no) |  |  | 

Further lines, the compound ahead of its results:

Row | Structure (SMILES) | (a) Decrease in background (without HRP with test cpd.) (0.01 mg/ml, 10µl test compound) | (b) Increase in signal (with HRP, with test cpd.) (0.01 mg/ml, 10µl test compound) | (c) Increase in signal: background ratio (0.01 mg/ml, 10µl test compound) | (d) Signal: Background: ratio (control = with no enhancer) (0.01 mg/ml, 10µl test compound) | (a) Decrease in background (without HRP with test cpd.) (0.1 mg/ml, 10µl test compound) | (b) Increase in signal (with HRP, with test cpd.) (0.1 mg/ml, 10µl test compound) | (d) Signal: Background: ratio (control = with no enhancer) (0.1 mg/ml, 10µl test compound) | (a) Decrease in background (without HRP with test cpd.) (1 mg/ml, 10µl test compound) | (b) Increase in signal (with HRP, with test cpd.) (1 mg/ml, 10µl test compound) | (c) Increase in signal: background ratio (1 mg/ml, 10µl test compound) | (d) Signal: Background: ratio (control = with no enhancer) (1 mg/ml, 10µl test compound) | (c) Increase in signal: background ratio (0.1 mg/ml, 10µl test compound) | (a) Decrease in background (without HRP with test cpd.) | (b) Increase in signal (with HRP, with test cpd.) | (c) Increase in signal: background ratio
7 | O=C(O)c1ccc(N=Nc2ccc(O)c(B(O)O)c2)cc1 [Compound 1018, 4-(3'-borono-4'-hydroxyphenylazo)benzoic acid] | Y | N | Y (Column (c) shows whether there was an increase in the signal:background ratio by over 25% of the control value (Y = yes) | 5.0 | Y | N | 24.5 | Y | N | Y (Column (c) shows whether there was an increase in the signal:background ratio by over 25% of the control value (Y = yes) | 4.2 (1.9) | Y (Column (c) shows whether there was an increase in the signal:background ratio by over 25% of the control value (Y = yes) |  |  | 
8 | CC(C)COB(c1ccccc1)c1ccccc1 [Compound 1019, diphenylisobutoxyborane] | Y | N | Y (Column (c) shows whether there was an increase in the signal:background ratio by over 25% of the control value (Y = yes) | 3.2 (2.0) | Y | N | 3.0 (2.9) | Y | N | N (N = no) |  | N (N = no) |  |  | 
9 | OB(O)c1c(Cl)cc(Cl)cc1Cl [Compound 1020, 2,4,6-trichlorophenylboronic acid] | Y | N | N (N = no) | 2.2 (2.0) | Y | N |  | Y | N | N (N = no) |  | N (N = no) |  |  | 
10 | O=[N+]([O-])c1cc(B(O)O)ccc1Cl [Compound 1021, 4-chloro-3-nitrophenylboronic acid] | Y | Y | Y (Column (c) shows whether there was an increase in the signal:background ratio by over 25% of the control value (Y = yes) | 2.3 (1.8) | Y | Y | 44.5 (2.8) | Y | Y | Y (Column (c) shows whether there was an increase in the signal:background ratio by over 25% of the control value (Y = yes) | 247.9 (4.5) | Y (Column (c) shows whether there was an increase in the signal:background ratio by over 25% of the control value (Y = yes) |  |  | 
11 | OB(O)c1ccc(Cl)c(Cl)c1 [Compound 1024, 3,4-dichlorophenylboronic acid] | Y | N | N (N = no) |  | Y | Y | 5.4 (2.8) | Y | N | Y (Column (c) shows whether there was an increase in the signal:background ratio by over 25% of the control value (Y = yes) | 7.6 (4.5) | Y (Column (c) shows whether there was an increase in the signal:background ratio by over 25% of the control value (Y = yes) |  |  | 
12 | Nc1c(Cl)cc(Cl)c(B(O)O)c1Cl [Compound 1026, 3-amino-2,4,6-trichlorophenylboronic acid] | Y | N | N (N = no) | 2.1 (2.0) | Y | Y | 72.4 (2.8) | Y | N | Y (Column (c) shows whether there was an increase in the signal:background ratio by over 25% of the control value (Y = yes) | 40.5 (4.5) | Y (Column (c) shows whether there was an increase in the signal:background ratio by over 25% of the control value (Y = yes) |  |  | 
13 | OB(O)c1cccc(Cl)c1 [Compound 1028, 3-chlorophenylboronic acid] |  |  |  |  |  |  |  |  |  |  |  |  | Y | N and Y | 
14 | OB(O)c1ccc(Cl)cc1 [Compound 1029, 4-chlorophenylboronic acid] |  |  |  |  |  |  |  |  |  |  |  |  | Y | Y | Y (key: Column (c) shows whether there was an increase in the signal:background ratio by over 25% of the control value (Y = yes; N = no)
